Source: US20240343717A1, “MICROBIOCIDAL PYRAZOLE DERIVATIVES” (SYNGENTA CROP PROTECTION AG, priority 2021, published 2024)

Tests used:
Format in all cases: cell-based
[1] = tested on: Monographella nivalis (Microdochium nivale); test: Monographella nivalis (Microdochium nivale) / liquid culture (foot rot cereals); details: growth inhibition photometrically 4-5 days after application, read-out: control of Monographella nivalis
Procedure: (§1) Example B9: Monographella nivalis (Microdochium nivale)/Liquid Culture (Foot Rot Cereals) Conidia of the fungus from cryogenic storage are directly mixed into nutrient broth (PDB potato dextrose broth). After placing a (DMSO) solution of test compound into a microtiter plate (96-well format), the nutrient broth containing the fungal spores is added. The test plates are incubated at 24° C. and the inhibition of growth is determined photometrically 4-5 days after application.

[2] = tested on: Mycosphaerella graminicola (Septoria tritici); test: Mycosphaerella graminicola (Septoria tritici) / liquid culture (Septoria blotch); details: Zymoseptoria tritici, growth inhibition photometrically 4-5 days after application, read-out: control of Mycosphaerella graminicola
Procedure: as §1, with “B16: Mycosphaerella graminicola (Septoria tritici)/Liquid” for “B9: Monographella nivalis (Microdochium nivale)/Liquid”, “(Septoria Blotch)” for “(Foot Rot Cereals)”

[3] = tested on: Botryotinia fuckeliana (Botrytis cinerea); test: Botryotinia fuckeliana (Botrytis cinerea) / liquid culture (gray mould); details: growth inhibition photometrically 3-4 days after application, read-out: control of Botryotinia fuckeliana
Procedure: as §1, with “B2: Botryotinia fuckeliana (Botrytis cinerea)/Liquid” for “B9: Monographella nivalis (Microdochium nivale)/Liquid”, “(Gray Mould)” for “(Foot Rot Cereals)”, “(Vogels” for “(PDB potato dextrose”, “3-4” for “4-5”

[4] = tested on: Glomerella lagenarium (Colletotrichum lagenarium); test: Glomerella lagenarium (Colletotrichum lagenarium) / liquid culture (anthracnose); details: Colletotrichum orbiculare, growth inhibition photometrically 3-4 days after application, read-out: control of Glomerella lagenarium
Procedure: as §1, with “B3: Glomerella lagenarium (Colletotrichum lagenarium)/Liquid” for “B9: Monographella nivalis (Microdochium nivale)/Liquid”, “(Anthracnose)” for “(Foot Rot Cereals)”, “measured” for “determined”, “3-4” for “4-5”

Compound	inhibition of growth at 20 ppm [1]	inhibition of growth at 20 ppm [2]	inhibition of growth at 20 ppm [3]	inhibition of growth at 20 ppm [4]
Cn1cc(C(CNC(=O)c2cc(-c3ccc(F)cc3F)on2)c2cccc(Cl)n2)cn1 (stereo not drawn) [Compound P-13, N-[2-(6-chloro-2-pyridyl)-2-(1-methylpyrazol-4-yl)ethyl]-5-(2,4-difluorophenyl)isoxazole-3-carboxamide]	≥ 80%	≥ 80%	≥ 80%	
Cn1cc(C(C)(CNC(=O)c2cc(-c3ccc(F)cc3F)on2)c2cc(O)cc(Cl)n2)cn1 (stereo not drawn) [Compound P-38, N-[2-(6-chloro-4-hydroxy-2-pyridyl)-2-(1-methylpyrazol-4-yl)propyl]-5-(2,4-difluorophenyl) isoxazole-3-carboxamide]		≥ 80%	≥ 80%	
COc1ncc(-c2cccc(C(C)(CNC(=O)c3cc(-c4ccc(F)cc4F)on3)c3cnn(C)c3)n2)c(OC)n1 (stereo not drawn) [Compound P-88, 5-(2,4-difluorophenyl)-N-[2-[6-(2,4-dimethoxypyrimidin-5-yl)-2-pyridyl]-2-(1-methylpyrazol-4-yl)propyl]isoxazole-3-carboxamide]	≥ 80%	≥ 80%	≥ 80%	
Cn1cc(C(C)(CNC(=O)c2cc(-c3ccc(F)cc3F)on2)c2cccc(-c3ccnn3C)n2)cn1 (stereo not drawn) [Compound P-95, 5-(2,4-difluorophenyl)-N-[2-(1-methylpyrazol-4-yl)-2-[6-(2-methylpyrazol-3-yl)-2-pyridyl]propyl] isoxazole-3-carboxamide]	≥ 80%	≥ 80%		
Cn1cc(C(C)(CNC(=O)c2cc(-c3ccc(F)cc3F)on2)c2ccc(Br)cn2)cn1 (stereo not drawn) [Compound P-33, N-[2-(5-bromo-2-pyridyl)-2-(1-methylpyrazol-4-yl)propyl]-5-(2,4-difluorophenyl) isoxazole-3-carboxamide]	≥ 80%	≥ 80%		≥ 80%
COc1cccc(C(C)(CNC(=O)c2cc(-c3ccc(F)cc3OC)on2)c2cnn(C)c2)n1 (stereo not drawn) [Compound P-99, 5-(4-fluoro-2-methoxy-phenyl)-N-[2-(6-methoxy-2-pyridyl)-2-(1-methylpyrazol-4-yl)propyl]isoxazole-3-carboxamide]		≥ 80%		
COc1ccc(C(C)=O)nc1C(C)(CNC(=O)c1cc(-c2ccc(F)cc2F)on1)c1cnn(C)c1 (stereo not drawn) [Compound P-112]		≥ 80%		
Cn1cc(C(C)(CNC(=O)c2cc(-c3ccc(F)cc3F)on2)c2cccc(C3(C#N)CC3)n2)cn1 (stereo not drawn) [Compound P-104, N-[2-[6-(1-cyanocyclopropyl)-2-pyridyl]-2-(1-methylpyrazol-4-yl)propyl]-5-(2,4-difluorophenyl) isoxazole-3-carboxamide]	≥ 80%	≥ 80%		
Cn1cc(C(C)(CNC(=O)c2cc(-c3ccc(F)cc3F)on2)c2cc(Br)ccn2)cn1 (stereo not drawn) [Compound P-66, N-[2-(4-bromo-2-pyridyl)-2-(1-methylpyrazol-4-yl)propyl]-5-(2,4-difluorophenyl) isoxazole-3-carboxamide]		≥ 80%		
Cc1noc(C)c1-c1cccc(C(C)(CNC(=O)c2cc(-c3ccc(F)cc3F)on2)c2cnn(C)c2)n1 (stereo not drawn) [Compound P-94, 5-(2,4-difluorophenyl)-N-[2-[6-(3,5-dimethylisoxazol-4-yl)-2-pyridyl]-2-(1-methylpyrazol-4-yl)propyl]isoxazole-3-carboxamide]	≥ 80%	≥ 80%		
Cn1cc(C(C)(CNC(=O)c2cc(-c3ccc(F)cc3F)on2)c2cc(C#N)cc(Cl)n2)cn1 (stereo not drawn) [Compound P-41, N-[2-(6-chloro-4-cyano-2-pyridyl)-2-(1-methylpyrazol-4-yl)propyl]-5-(2,4-difluorophenyl) isoxazole-3-carboxamide]		≥ 80%	≥ 80%	
COc1cc(Cl)nc([C@](C)(CNC(=O)c2cc(-c3ccc(F)cc3F)no2)c2cnn(C)c2)c1 [Compound P-47, N-[(2S)-2-(6-chloro-4-methoxy-2-pyridyl)-2-(1-methylpyrazol-4-yl)propyl]-3-(2,4-difluorophenyl) isoxazole-5-carboxamide]	≥ 80%	≥ 80%	≥ 80%	
Cc1c(-c2cccc(C(C)(CNC(=O)c3cc(-c4ccc(F)cc4F)on3)c3cnn(C)c3)n2)ccnc1F (stereo not drawn) [Compound P-98, 5-(2,4-difluorophenyl)-N-[2-[6-(2-fluoro-3-methyl-4-pyridyl)-2-pyridyl]-2-(1-methylpyrazol-4-yl)propyl]isoxazole-3-carboxamide]		≥ 80%		
COC(=O)c1ccc(C(C)(CNC(=O)c2cc(-c3ccc(F)cc3F)on2)c2cnn(C)c2)nc1 (stereo not drawn) [Compound P-55, methyl 6-[2-[[5-(2,4-difluorophenyl)isoxazole-3-carbonyl]amino]-1-methyl-1-(1-methylpyrazol-4-yl)ethyl]pyridine-3-carboxylate]	≥ 80%	≥ 80%	≥ 80%	≥ 80%
Cn1cc(C(C)(CNC(=O)c2cc(-c3ccc(F)cc3F)on2)c2ccc(N)cn2)cn1 (stereo not drawn) [Compound P-58, N-[2-(5-amino-2-pyridyl)-2-(1-methylpyrazol-4-yl)propyl]-5-(2,4-difluorophenyl) isoxazole-3-carboxamide]	≥ 80%			
CC(=O)c1ccc(C(C)(CNC(=O)c2cc(-c3ccc(F)cc3F)on2)c2cnn(C)c2)nc1 (stereo not drawn) [Compound P-57, N-[2-(5-acetyl-2-pyridyl)-2-(1-methylpyrazol-4-yl)propyl]-5-(2,4-difluorophenyl) isoxazole-3-carboxamide]	≥ 80%	≥ 80%		≥ 80%
COc1ccc(C(C)(CNC(=O)c2cc(-c3ccc(F)cc3F)on2)c2cnn(C)c2)nc1Br (stereo not drawn) [Compound P-109, N-[2-(6-bromo-5-methoxy-2-pyridyl)-2-(1-methylpyrazol-4-yl)propyl]-5-(2,4-difluorophenyl) isoxazole-3-carboxamide]		≥ 80%		
Cn1cc(C(C)(CNC(=O)c2cc(-c3ccc(Cl)cc3Cl)on2)c2cccc(Cl)n2)cn1 (stereo not drawn) [Compound P-28]	≥ 80%	≥ 80%		≥ 80%
Cc1cncc(-c2cccc(C(C)(CNC(=O)c3cc(-c4ccc(F)cc4F)on3)c3cnn(C)c3)n2)c1 (stereo not drawn) [Compound P-91, 5-(2,4-difluorophenyl)-N-[2-(1-methylpyrazol-4-yl)-2-[6-(5-methyl-3-pyridyl)-2-pyridyl]propyl] isoxazole-3-carboxamide]	≥ 80%	≥ 80%		
Cc1cc(C(=O)NCC(C)(c2cnn(C)c2)c2cccc(Cl)n2)no1 (stereo not drawn) [Compound P-77, N-[2-(6-chloro-2-pyridyl)-2-(1-methylpyrazol-4-yl)propyl]-5-methyl-isoxazole-3-carboxamide]		≥ 80%		
Cn1cc(C(C)(CNC(=O)c2cc(-c3ccc(F)cc3F)on2)c2cc(Cl)ccn2)cn1 (stereo not drawn) [Compound P-18, N-[2-(4-chloro-2-pyridyl)-2-(1-methylpyrazol-4-yl)propyl]-5-(2,4-difluorophenyl) isoxazole-3-carboxamide]	≥ 80%	≥ 80%		
Cc1ncc(-c2cccc(C(C)(CNC(=O)c3cc(-c4ccc(F)cc4F)on3)c3cnn(C)c3)n2)cc1F (stereo not drawn) [Compound P-97, 5-(2,4-difluorophenyl)-N-[2-[6-(5-fluoro-6-methyl-3-pyridyl)-2-pyridyl]-2-(1-methylpyrazol-4-yl)propyl]isoxazole-3-carboxamide]		≥ 80%		
Cn1cc(C(C)(CNC(=O)c2nnc(-c3ccc(F)cc3F)s2)c2ncccc2Cl)cn1 (stereo not drawn) [Compound P-1, N-[2-(3-chloro-2-pyridyl)-2-(1-methylpyrazol-4-yl)propyl]-5-(2,4-difluorophenyl)-1,3,4-thiadiazole-2-carboxamide]	≥ 80%	≥ 80%	≥ 80%	
Cc1cc(-c2cccc(C(C)(CNC(=O)c3cc(-c4ccc(F)cc4F)on3)c3cnn(C)c3)n2)ccn1 (stereo not drawn) [Compound P-89, 5-(2,4-difluorophenyl)-N-[2-(1-methylpyrazol-4-yl)-2-[6-(2-methyl-4-pyridyl)-2-pyridyl]propyl] isoxazole-3-carboxamide]	≥ 80%	≥ 80%		
COc1cc(C#N)nc(C(C)(CNC(=O)c2cc(-c3ccc(F)cc3F)on2)c2cnn(C)c2)c1 (stereo not drawn) [Compound P-67, N-[2-(6-cyano-4-methoxy-2-pyridyl)-2-(1-methylpyrazol-4-yl)propyl]-5-(2,4-difluorophenyl) isoxazole-3-carboxamide]	≥ 80%	≥ 80%		
